Activity calls are given as the source filed them. No cut-off for these calls is given here.
Tested on: Radical scavenging activity
Assay: Antioxidant activity assessed as DPPH free radical scavenging activity by TLC autographic assay
Format: functional

Which Activity does the source give for `C[C@@H]1O[C@@H](O[C@@H]2[C@H]3O[C@@H](c4ccc(O)c(O)c4)CO[C@@H]3O[C@H](CO)[C@H]2OC(=O)/C=C/c2ccc(O)c(O)c2)[C@H](O)[C@H](O)[C@H]1O` here?
The Activity was “Active”.

With `C[C@@H]1O[C@@H](O[C@@H]2[C@@H](O)[C@H](OCCc3ccc(O)c(O)c3)O[C@H](CO[C@@H]3OC[C@@H](O)[C@H](O)[C@H]3O)[C@H]2OC(=O)/C=C/c2ccc(O)c(O)c2)[C@H](O)[C@H](O)[C@H]1O[C@@H]1OC[C@@H](O)[C@H](O)[C@H]1O` as the compound, how does the Activity read?
Its Activity is “Active”.

For `C[C@@H]1O[C@@H](O[C@@H]2[C@@H](O)[C@H](OCCc3ccc(O)c(O)c3)O[C@H](CO)[C@H]2OC(=O)/C=C/c2ccc(O)c(O)c2)[C@H](O)[C@H](O)[C@H]1O[C@@H]1OC[C@@H](O)[C@H](O)[C@H]1O`, which Activity is on record?
Its Activity is “Active”.

How did the Activity turn out when `C[C@@H]1O[C@@H](O[C@@H]2[C@@H](O)[C@H](OCCc3ccc(O)c(O)c3)O[C@H](CO)[C@H]2OC(=O)/C=C/c2ccc(O)c(O)c2)[C@H](O)[C@H](O)[C@H]1O[C@@H]1O[C@H](CO)[C@@H](O)[C@H](O)[C@H]1O` was run?
Its Activity is “Active”.

How did the Activity turn out when `C[C@@H]1O[C@@H](O[C@@H]2[C@@H](O)[C@H](OCCc3ccc(O)c(O)c3)O[C@H](CO)[C@H]2OC(=O)/C=C/c2ccc(O)c(O)c2)[C@H](O)[C@H](O)[C@H]1O` was run?
Its Activity is “Active”.

— ChEMBL document CHEMBL1144094, “Phenylethanoid glycosides from Globularia trichosantha” (J Nat Prod, 1999)
